Assay results published in patent US20090181948A1, “DIAMINE DERIVATIVE” (KYOWA HAKKO KOGYO CO., LTD., priority 2005, published 2009).
Where a name gives a salt, the structure may show the parent alone.

Key:
histamine H3 receptor [1] = molecular target: T1, histamine H3 receptor (Rattus norvegicus, UniProt Q9QYN8); assay: Histamine H3 receptor binding assay ([3H]-Nα-methylhistamine binding to rat striatum homogenate); details: 1 μmol/L test compound; [3H]-Nα-methylhistamine 1 nmol/L; striata of Sprague-Dawley male rats, 25° C., 1 hour; read-out: Inhibition ratio of [3H]-Nα-methylhistamine binding
T1 construct: from tissue; host or cells: rat striatum (Sprague-Dawley, male, 6 weeks), membrane homogenate
In short: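 Rat striatum membranes (20 μg protein) incubated with [3H]-Nα-methylhistamine 1 nmol/L in 50 mmol/L Tris/HCl pH 7.4, 5 mmol/L EDTA, 1 hour at 25° C; bound ligand by filtration and scintillation counting. Nonspecific binding defined with 10 μmol/L thioperamide; % inhibition reported at 1 μmol/L compound.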

histamine H3 receptor [2] = molecular target: T1, histamine H3 receptor; assay: Inhibitory effect on histamine release suppressive action of histamine H3 receptor agonist (Nα-methylhistamine) in rat forebrain synaptosomes; type: biochemical; details: 1 μmol/L test compound and 1 μmol/L Nα-methylhistamine, potassium 30 mmol/L stimulation, read-out: Inhibition ratio of the [3H]-histamine release suppressive action of Nα-methylhistamine
Method: To the forebrains of Sprague-Dawley male rats (6 to 8 weeks of age), a 30-fold volume of a 0.32 mol/L aqueous sucrose solution was added and the forebrains were homogenized. The resulting homogenate was centrifuged (1,000×g, 4° C., 10 min), and to the obtained supernatant, an equivalent volume of Krebs-Ringer solution [120 mmol/L sodium chloride, 0.8 mmol/L potassium chloride, 2.6 mmol/L calcium chloride, 0.67 mmol/L magnesium sulfate, 1.2 mmol/L potassium dihydrogen phosphate, 27.5 mmol/L sodium bicarbonate, 10 mmol/L glucose (pH 7.3)] was added, and the resulting mixture was centrifuged (10,000×g, 4° C., 15 min). To the obtained precipitate, a 15-fold volume of Krebs-Ringer solution was added to suspend the precipitate. Then, the concentration of protein in the resulting tissue homogenate (synaptosomes) was measured and used for a test.
To the synaptosomes (300 μg in terms of protein amount) prepared by the above-described method, a [^3H]-histidine solution [final concentration: […] (740 kBq)/mL]: 6 μl of a 37 MBq/mL (specific activity: […]) solution] was added, and the total volume was adjusted to 300 μL with Krebs-Ringer solution. Then, the resulting mixture was incubated at 37° C. for 30 minutes and centrifuged (10,000×g, 25° C., 3 min). To the resulting precipitate (synaptosomes), 300 μL of Krebs-Ringer solution was added, and the mixture was incubated at 37° C. for 5 minutes and centrifuged (10,000×g, 25° C., 3 min). This procedure was repeated 5 times, whereby washing of synaptosomes was carried out. The resulting synaptosomes were suspended in 100 μL of Krebs-Ringer solution, and the resulting suspension was used for the following procedure.
A test compound and N^α-methylhistamine were separately dissolved in Krebs-Ringer solution to give a concentration of 20 μmol/L (the resulting mixtures were referred to as a test compound solution and a N^α-methylhistamine solution, respectively). To 100 μL of the above-described suspended synaptosomes (300 μg in terms of protein amount), 140 μL of Krebs-Ringer solution was added. Then, 30 μL of the test compound solution and 30 μL of the N^α-methylhistamine solution were added thereto, and the resulting mixture was incubated at 37° C. for 2 minutes. Then, an equivalent volume of a stimulating solution [64 mmol/L sodium chloride, 56.8 mmol/L potassium chloride, 2.6 mmol/L calcium chloride, 0.67 mmol/L magnesium sulfate, 1.2 mmol/L potassium dihydrogen phosphate, 27.5 mmol/L sodium bicarbonate, 10 mmol/L glucose (pH 7.3)] (final potassium concentration: 30 mmol/L) was added, and the resulting mixture was incubated at 37° C. for 2 minutes to release [^3H]-histamine. The reaction mixture was centrifuged (10,000×g, 25° C., 3 min), and the obtained supernatant was passed through Amberlite CG-50 column (250 μL), and the non-adsorbed fractions were discarded. Then, 2 mL of 50 mmol/L [[…]]/hydrochloric acid (HCl) (pH 7.5) (Tris) was passed through the column 3 times, and 2 mL of distilled water, and 1.5 mL of a 0.2 mol/L aqueous sodium hydroxide solution were passed through the column in this order, and the eluted fractions were discarded. Then, 2 mL of a 0.2 mol/L aqueous sodium hydroxide solution was passed through the column, and the eluted fraction was recovered in a scintillation vial. Then, 8 mL of Ultimagold (Perkin Elmer) was added to the recovered eluted solution, and the radioactivity ([^3H]-histamine) was measured using a liquid scintillation counter. The inhibitory action of the test compound on the histamine release suppressive action of N^α-methylhistamine was evaluated by obtaining the inhibition ratio to the histamine release suppressive action in the presence of 1 μmol/L No-methylhistamine and 1 μmol/L of the test compound. The inhibition ratio of the [^3H]-histamine release suppressive action was calculated using the following Equation (2). […]

T1 sequence (Q9QYN8 whole entry): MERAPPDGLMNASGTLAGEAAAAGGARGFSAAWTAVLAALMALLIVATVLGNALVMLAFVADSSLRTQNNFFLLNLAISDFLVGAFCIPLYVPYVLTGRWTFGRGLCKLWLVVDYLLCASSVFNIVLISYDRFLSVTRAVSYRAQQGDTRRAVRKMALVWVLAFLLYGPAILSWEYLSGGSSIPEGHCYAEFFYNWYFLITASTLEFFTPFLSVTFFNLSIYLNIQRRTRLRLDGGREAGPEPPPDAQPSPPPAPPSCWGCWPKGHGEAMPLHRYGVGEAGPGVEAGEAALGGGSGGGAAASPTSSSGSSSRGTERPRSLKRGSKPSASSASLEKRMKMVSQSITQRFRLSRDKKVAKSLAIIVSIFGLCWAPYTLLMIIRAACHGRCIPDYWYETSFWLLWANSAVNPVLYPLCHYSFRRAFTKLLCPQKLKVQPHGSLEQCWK

Row | Compound | inhibition at 1 µM (histamine H3 receptor [1]) [%] | inhibition at 1 µM (histamine H3 receptor [2]) [%] | melting point [°C]
1 | N#CC(C#N)=C1N(CCCN2CCOCC2)CCN1C1CCN(C2CC2)CC1 [Compound 235, [1-(1-Cyclopropylpiperidin-4-yl)-3-(3-morpholinopropyl)imidazolidin-2-ylidene]malononitrile] | ≥ 80 | ≥ 70 | 104 to 106
2 | N#CC(C#N)=C(NCCCN1CCOCC1)N1CCC(N2CCCCC2)CC1 [Compound 165, [(4-Piperidinopiperidino)(3-morpholinopropylamino)methylene]malononitrile] | ≥ 80 | ≥ 70 | 77 to 80
3 | CC(C)N1CCC(N2CCN(CCCN3CCCCC3)C2=C(C#N)C#N)CC1 [Compound 130, [1-(1-Isopropylpiperidin-4-yl)-3-(3-piperidinopropyl)imidazolidin-2-ylidene]malononitrile] | ≥ 80 | ≥ 70 | –
4 | CN1CCC(N2CCN(CCCN3CCCCC3)C2=C(C#N)C#N)CC1 [Compound 129, [1-(1-Methylpiperidin-4-yl)-3-(3-piperidinopropyl)imidazolidin-2-ylidene]malononitrile] | ≥ 80 | ≥ 70 | –
5 | N#CC(C#N)=C1N(CCCCN2CCCCC2)CCN1CCN1CCCCC1 [Compound 7, [1-(4-Piperidinobutyl)-3-(2-piperidinoethyl)imidazolidin-2-ylidene]malononitrile] | ≥ 80 | ≥ 70 | –
6 | CC1CCCN1CC1CCN(C(=C(C#N)C#N)N(C)CCN2CCCCC2)CC1 (centres unmarked) [Compound 149, {[N-methyl-N-(2-piperidinoethyl)amino][4-(2-methylpyrrolidin-1-ylmethyl)piperidino]methylene}malononitrile] | ≥ 80 | ≥ 70 | –
7 | N#CC(C#N)=C1N(CCCN2CCCCC2)CCN1C1CCN(CCF)CC1 [Compound 215, {1-[1-(2-Fluoroethyl)piperidin-4-yl]-3-(3-piperidinopropyl)imidazolidin-2-ylidene}malononitrile] | ≥ 80 | ≥ 70 | –
8 | N#CC(C#N)=C1N(CCCN2CCCCC2)CCN1CCCN1CCCCC1 [Compound 64, [1,3-Bis(3-piperidinopropyl)imidazolidin-2-ylidene]malononitrile] | ≥ 80 | ≥ 70 | –
9 | N#CC(C#N)=C1N(CCCN2CCCCC2)CCN1CCN1CCCCC1 [Compound 10, [1-(2-Piperidinoethyl)-3-(3-piperidinopropyl)imidazolidin-2-ylidene]malononitrile] | ≥ 80 | ≥ 70 | –
10 | CC(C)N1CCC(NC(=C(C#N)C#N)N2CCC(N3CCCCC3)CC2)CC1 [Compound 175, [(1-Isopropylpiperidin-4-ylamino)(4-piperidinopiperidino)methylene]malononitrile] | ≥ 80 | ≥ 70 | –
11 | N#CC(C#N)=C1N(CCCN2CCCCC2)CCN1CCN1CCCCCC1 [Compound 47, {1-[2-(Azepan-1-yl)ethyl]-3-(3-piperidinopropyl)imidazolidin-2-ylidene}malononitrile] | ≥ 80 | ≥ 70 | –
12 | N#CC(C#N)=C1N(CCCN2CCCCC2)CCCN1CCCN1CCCCC1 [Compound 122, [1,3-Bis(3-piperidinopropyl)hexahydropyrimidin-2-ylidene]malononitrile] | ≥ 80 | ≥ 70 | –
13 | N#CC(C#N)=C(NCCN1CCCCC1)N1CCC(CN2CCCCC2)CC1 [Compound 147, [(2-Piperidinoethylamino)(4-piperidinomethylpiperidino)methylene]malononitrile] | ≥ 80 | – | 78 to 80
14 | N#CC(C#N)=C1N(CCCN2CCCCC2)CCN1C1CCN(Cc2ccccc2)CC1 [Compound 126, [1-(1-Benzylpiperidin-4-yl)-3-(3-piperidinopropyl)imidazolidin-2-ylidene]malononitrile] | ≥ 80 | ≥ 70 | –
15 | CC(C)N1CCC(N2CCN(CCCN3CCOCC3)C2=C(C#N)C#N)CC1 [Compound 216, [1-(1-Isopropylpiperidin-4-yl)-3-(3-morpholinopropyl)imidazolidin-2-ylidene]malononitrile] | ≥ 80 | ≥ 70 | –
16 | CC(C)N1CCC(N2CCN(CCN3CCC[C@H]3C)C2=C(C#N)C#N)CC1 [Compound 213, {1-(1-Isopropylpiperidin-4-yl)-3-[2-((R)-2-methylpyrrolidin-1-yl)ethyl]imidazolidin-2-ylidene}malononitrile] | ≥ 80 | ≥ 70 | –

Further lines, results first:

Row | inhibition at 1 µM (histamine H3 receptor [1]) [%] | inhibition at 1 µM (histamine H3 receptor [2]) [%] | melting point [°C] | Compound
17 | ≥ 80 | ≥ 70 | – | CC1CCCCN1CCCN1CCN(CCCN2CCCC2C)C1=C(C#N)C#N (centres unmarked) [Compound 111, {1-[3-(2-Methylpiperidino)propyl]-3-[3-(2-methylpyrrolidin-1-yl)propyl]imidazolidin-2-ylidene}malononitrile]
18 | ≥ 80 | ≥ 70 | – | CC1CCCN1CCN1CCN(CCN2CCCC2C)C1=C(C#N)C#N (centres unmarked) [Compound 6, {1,3-Bis[2-(2-methylpyrrolidin-1-yl)ethyl]imidazolidin-2-ylidene}malononitrile]
19 | ≥ 80 | ≥ 70 | – | C[C@H]1CCCN1CCN1CCN(CCN2CCC[C@@H]2C)C1=C(C#N)C#N [Compound 188, {1,3-Bis[2-((S)-2-methylpyrrolidin-1-yl)ethyl]imidazolidin-2-ylidene}malononitrile]
20 | ≥ 80 | ≥ 70 | – | CC1CCCN1CCCN1C(=C(C#N)C#N)N(CCCN2CCCC2C)c2ccccc21 (centres unmarked) [Compound 124, {1,3-Bis[3-(2-methylpyrrolidin-1-yl)propyl]benzimidazolidin-2-ylidene}malononitrile]
21 | ≥ 80 | ≥ 70 | – | CC1CCCN1CCCN1CCN(CCCN2CCCCCC2)C1=C(C#N)C#N (centres unmarked) [Compound 71, {1-[3-(Azepan-1-yl)propyl]-3-[3-(2-methylpyrrolidin-1-yl)propyl]imidazolidin-2-ylidene}malononitrile]
22 | ≥ 80 | ≥ 70 | – | C[C@@H]1CCC[C@H](C)N1CCN1CCN(CCCN2CCCCC2)C1=C(C#N)C#N [Compound 51, {1-[2-(Cis-2,6-dimethylpiperidino)ethyl]-3-(3-piperidinopropyl)imidazolidin-2-ylidene}malononitrile]
23 | ≥ 80 | ≥ 70 | – | C[C@H]1CCCN1CCCN1CCN(CCCN2CCC[C@@H]2C)C1=C(C#N)S(=O)(=O)c1ccccc1 [Compound 247, {1,3-Bis[3-((S)-2-methylpyrrolidin-1-yl)propyl]imidazolidin-2-ylidene}benzenesulfonylacetonitrile monohydrochloride]
24 | ≥ 80 | ≥ 70 | – | CC1CCCN1CCCN1CCN(CCCN2CCCCC2)C1=C(C#N)C#N (centres unmarked) [Compound 103, {1-[3-(2-Methylpyrrolidin-1-yl)propyl]-3-(3-piperidinopropyl)imidazolidin-2-ylidene}malononitrile]
